Test results published in ChEMBL document CHEMBL6109043, “Advances in the selective c-MET kinase inhibitors: Application of fused [5,6]-Bicyclic nitrogen-containing cores for anticancer drug design” (Eur J Med Chem, 2025).
Values after ≈ are worked out from the molar mass of the structure shown. One block for each compound: values may come before it.

Legend:
HepG2 = assay: Antiproliferative activity against human HepG2 cells assessed as reduction in cell viability incubated for 72 hrs by MTT assay; assay type: functional, cell-based; settings: HepG2, 72 h
[1] = molecular target: T1, Hepatocyte growth factor receptor (Homo sapiens, UniProt P08581); assay: Inhibition of c-MET (unknown origin) using poly (Glu,Tyr) 4:1 as substrate incubated for 30 mins by ADP-Glo reagent based analysis
[2] = molecular target: T1, Hepatocyte growth factor receptor; assay: Inhibition of c-MET (unknown origin) incubated for 30 mins by ELISA method
[3] = Antiproliferative activity against mouse BaF3/[…] cells assessed as reduction in cell viability incubated for 72 hrs by Cell-titer glo reagent based assay; assay type: functional; settings: BaF3, 72 h
[4] = molecular target: Epidermal growth factor receptor (Homo sapiens, UniProt P00533); assay: Inhibition of EGFR (unknown origin)
[5] = molecular target: ALK tyrosine kinase receptor (Homo sapiens, UniProt Q9UM73); assay: Inhibition of ALK (unknown origin)
[6] = molecular target: Proto-oncogene tyrosine-protein kinase receptor Ret (Homo sapiens, UniProt P07949); assay: Inhibition of RET (unknown origin)
CYP3A4 [7] = molecular target: T2, CYP3A4 (Homo sapiens, UniProt P08684); assay: Inhibition of CYP3A4 (unknown origin); assay type: ADME
CYP3A4 [8] = molecular target: T2, CYP3A4; assay: Inhibition of CYP3A4 in human liver microsomes; assay type: ADME, Microsome
Cytochrome P450 3A4 = Cytochrome P450 3A4 (Homo sapiens, UniProt P08684); assay: Inhibition of CYP3A4 in human liver microsome assessed as fold change; assay type: ADME; settings: microsomes
[9] = Antiproliferative activity against mouse BaF3/TRP-Met cells assessed as reduction in cell growth incubated for 72 hrs by SRB assay; settings: BaF3, 72 h
NIH3T3 [10] = assay: Antiproliferative activity against mouse NIH3T3/TRP-Met cells assessed as reduction in cell growth incubated for 72 hrs by SRB assay; settings: NIH3T3, 72 h
NIH3T3 [11] = assay: Antiproliferative activity against mouse NIH3T3 cells assessed as reduction in cell growth incubated for 72 hrs by SRB assay; settings: NIH3T3, 72 h
SNU1 = assay: Antiproliferative activity against human SNU1 cells assessed as reduction in cell viability incubated for 72 hrs by SRB assay; settings: SNU1, 72 h
NCI-H661 = assay: Antiproliferative activity against human NCI-H661 cells assessed as reduction in cell viability incubated for 72 hrs by SRB assay; settings: NCI-H661, 72 h
MKN-45 = assay: Antiproliferative activity against human MKN-45 cells assessed as reduction in cell viability incubated for 72 hrs by Cell-titer glo luminescent assay; assay type: functional, cell-based; settings: MKN-45, 72 h
EBC-1 = assay: Antiproliferative activity against human EBC-1 cells assessed as reduction in cell viability incubated for 72 hrs by Cell-titer glo luminescent assay; assay type: functional, cell-based; settings: EBC-1, 72 h
[12] = molecular target: T1, Hepatocyte growth factor receptor; assay: Inhibition of c-Met (unknown origin)
[13] = Water solubility of compound at pH 7 incubated for 2 hrs by HPLC analysis; assay type: physicochemical

T1 sequence (P08581 whole entry): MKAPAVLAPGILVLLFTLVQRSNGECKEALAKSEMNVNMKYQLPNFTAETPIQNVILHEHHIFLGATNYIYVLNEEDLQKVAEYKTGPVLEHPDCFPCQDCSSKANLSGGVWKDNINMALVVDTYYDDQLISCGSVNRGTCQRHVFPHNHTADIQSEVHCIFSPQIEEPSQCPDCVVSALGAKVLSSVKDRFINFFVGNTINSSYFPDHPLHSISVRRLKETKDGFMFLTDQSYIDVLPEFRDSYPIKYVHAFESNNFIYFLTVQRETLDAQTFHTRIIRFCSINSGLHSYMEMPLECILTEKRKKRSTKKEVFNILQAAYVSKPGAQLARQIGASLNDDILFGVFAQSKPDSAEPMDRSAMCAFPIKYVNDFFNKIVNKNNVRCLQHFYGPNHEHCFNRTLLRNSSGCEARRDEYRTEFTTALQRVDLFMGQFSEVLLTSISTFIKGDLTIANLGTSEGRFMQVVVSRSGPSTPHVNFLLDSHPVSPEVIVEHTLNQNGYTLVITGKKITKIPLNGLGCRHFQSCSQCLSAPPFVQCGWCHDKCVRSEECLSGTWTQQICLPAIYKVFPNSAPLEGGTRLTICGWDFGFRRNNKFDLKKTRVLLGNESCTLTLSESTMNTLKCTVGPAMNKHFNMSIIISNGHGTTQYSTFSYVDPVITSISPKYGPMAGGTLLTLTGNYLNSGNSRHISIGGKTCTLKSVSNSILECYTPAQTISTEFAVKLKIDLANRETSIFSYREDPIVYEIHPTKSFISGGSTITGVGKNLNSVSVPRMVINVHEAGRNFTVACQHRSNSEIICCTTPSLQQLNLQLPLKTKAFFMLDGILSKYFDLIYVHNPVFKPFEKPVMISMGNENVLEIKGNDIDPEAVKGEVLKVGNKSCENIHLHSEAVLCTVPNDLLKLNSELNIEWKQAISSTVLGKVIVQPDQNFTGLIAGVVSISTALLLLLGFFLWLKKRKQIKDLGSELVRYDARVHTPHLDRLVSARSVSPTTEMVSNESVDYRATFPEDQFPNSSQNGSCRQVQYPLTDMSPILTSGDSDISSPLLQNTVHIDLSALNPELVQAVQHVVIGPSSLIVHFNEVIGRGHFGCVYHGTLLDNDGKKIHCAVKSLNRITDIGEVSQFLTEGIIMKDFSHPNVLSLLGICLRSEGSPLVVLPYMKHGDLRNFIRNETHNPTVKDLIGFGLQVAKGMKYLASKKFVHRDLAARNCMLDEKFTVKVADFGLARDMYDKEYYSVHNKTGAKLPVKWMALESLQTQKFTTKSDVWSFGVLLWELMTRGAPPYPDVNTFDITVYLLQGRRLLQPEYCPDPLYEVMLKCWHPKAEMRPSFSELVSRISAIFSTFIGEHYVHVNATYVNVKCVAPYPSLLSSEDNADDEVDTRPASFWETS
Chain of Epidermal growth factor receptor (P00533 whole entry): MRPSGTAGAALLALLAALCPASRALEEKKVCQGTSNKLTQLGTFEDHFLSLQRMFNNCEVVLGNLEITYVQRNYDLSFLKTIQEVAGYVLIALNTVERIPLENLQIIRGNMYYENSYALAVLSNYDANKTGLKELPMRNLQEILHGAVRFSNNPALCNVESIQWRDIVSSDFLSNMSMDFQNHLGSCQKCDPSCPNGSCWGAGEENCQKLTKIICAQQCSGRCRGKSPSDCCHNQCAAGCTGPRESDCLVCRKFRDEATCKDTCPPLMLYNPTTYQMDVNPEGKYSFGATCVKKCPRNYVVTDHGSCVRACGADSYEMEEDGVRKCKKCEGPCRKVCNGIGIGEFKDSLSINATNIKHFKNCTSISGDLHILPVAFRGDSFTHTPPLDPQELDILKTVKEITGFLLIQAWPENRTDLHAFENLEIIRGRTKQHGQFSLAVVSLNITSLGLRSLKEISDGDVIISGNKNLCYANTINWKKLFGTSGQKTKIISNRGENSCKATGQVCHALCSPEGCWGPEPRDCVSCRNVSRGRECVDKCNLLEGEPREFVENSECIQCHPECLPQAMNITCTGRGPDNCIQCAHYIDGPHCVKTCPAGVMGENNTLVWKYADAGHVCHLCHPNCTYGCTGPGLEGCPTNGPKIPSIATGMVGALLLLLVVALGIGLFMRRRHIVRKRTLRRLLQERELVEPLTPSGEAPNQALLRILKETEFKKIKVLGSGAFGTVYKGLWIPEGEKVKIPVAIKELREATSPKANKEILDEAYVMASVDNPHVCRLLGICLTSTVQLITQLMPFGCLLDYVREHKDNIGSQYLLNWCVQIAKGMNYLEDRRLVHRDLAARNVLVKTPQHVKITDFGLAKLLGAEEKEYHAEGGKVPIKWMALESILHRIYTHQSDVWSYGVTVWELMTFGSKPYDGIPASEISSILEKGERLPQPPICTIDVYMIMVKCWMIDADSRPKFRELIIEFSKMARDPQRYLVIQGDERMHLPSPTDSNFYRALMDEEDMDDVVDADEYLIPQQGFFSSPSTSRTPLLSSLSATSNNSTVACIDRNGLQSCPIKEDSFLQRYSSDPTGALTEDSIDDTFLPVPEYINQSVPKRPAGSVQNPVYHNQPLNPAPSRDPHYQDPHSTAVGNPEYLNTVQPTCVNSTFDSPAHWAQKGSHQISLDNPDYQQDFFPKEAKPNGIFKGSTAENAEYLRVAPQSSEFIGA
Chain of Proto-oncogene tyrosine-protein kinase receptor Ret (P07949 whole entry): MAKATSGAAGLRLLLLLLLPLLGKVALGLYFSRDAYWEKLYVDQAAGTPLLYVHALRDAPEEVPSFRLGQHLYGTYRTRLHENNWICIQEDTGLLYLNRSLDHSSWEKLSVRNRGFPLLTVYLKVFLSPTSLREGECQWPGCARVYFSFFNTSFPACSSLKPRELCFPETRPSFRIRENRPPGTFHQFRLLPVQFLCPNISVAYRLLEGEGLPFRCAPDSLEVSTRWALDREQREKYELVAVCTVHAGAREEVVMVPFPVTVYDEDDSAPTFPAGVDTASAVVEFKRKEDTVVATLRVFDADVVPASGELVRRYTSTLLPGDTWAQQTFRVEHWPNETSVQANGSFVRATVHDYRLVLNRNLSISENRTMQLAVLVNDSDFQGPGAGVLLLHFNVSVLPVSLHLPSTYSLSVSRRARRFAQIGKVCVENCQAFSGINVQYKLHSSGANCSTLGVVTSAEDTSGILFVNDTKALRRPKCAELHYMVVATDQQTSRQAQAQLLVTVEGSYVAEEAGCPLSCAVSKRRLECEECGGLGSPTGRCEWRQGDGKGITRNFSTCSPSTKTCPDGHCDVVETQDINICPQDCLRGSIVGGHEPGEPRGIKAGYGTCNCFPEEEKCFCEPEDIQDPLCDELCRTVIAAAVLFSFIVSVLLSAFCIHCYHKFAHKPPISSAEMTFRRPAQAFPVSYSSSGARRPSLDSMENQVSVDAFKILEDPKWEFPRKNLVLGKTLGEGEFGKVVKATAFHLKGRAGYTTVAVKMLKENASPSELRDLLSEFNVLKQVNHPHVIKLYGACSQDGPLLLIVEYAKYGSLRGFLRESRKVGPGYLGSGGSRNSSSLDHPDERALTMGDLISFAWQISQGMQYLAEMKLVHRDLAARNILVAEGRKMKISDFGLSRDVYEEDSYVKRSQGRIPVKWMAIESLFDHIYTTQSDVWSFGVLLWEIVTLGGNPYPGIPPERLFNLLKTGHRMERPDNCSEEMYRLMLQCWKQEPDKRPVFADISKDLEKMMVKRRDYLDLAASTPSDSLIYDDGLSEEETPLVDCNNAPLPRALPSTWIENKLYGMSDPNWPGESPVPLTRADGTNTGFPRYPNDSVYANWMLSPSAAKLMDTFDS
T2 sequence (P08684 whole entry): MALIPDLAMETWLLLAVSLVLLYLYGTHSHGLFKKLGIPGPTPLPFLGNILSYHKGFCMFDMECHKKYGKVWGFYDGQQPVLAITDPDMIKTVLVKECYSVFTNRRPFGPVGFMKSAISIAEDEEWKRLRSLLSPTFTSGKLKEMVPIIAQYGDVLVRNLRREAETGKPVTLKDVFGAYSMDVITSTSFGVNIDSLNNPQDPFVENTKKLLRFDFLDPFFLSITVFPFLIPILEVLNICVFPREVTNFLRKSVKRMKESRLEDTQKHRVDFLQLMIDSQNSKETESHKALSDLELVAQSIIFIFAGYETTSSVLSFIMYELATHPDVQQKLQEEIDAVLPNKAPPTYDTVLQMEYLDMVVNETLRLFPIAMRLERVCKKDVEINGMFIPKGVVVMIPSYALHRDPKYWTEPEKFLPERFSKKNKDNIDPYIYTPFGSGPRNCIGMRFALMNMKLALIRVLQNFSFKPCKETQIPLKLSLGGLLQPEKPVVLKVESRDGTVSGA
Chain of Cytochrome P450 3A4 (P08684 whole entry): as above

IC50 (HepG2): 740 nM
IC50 [1]: 4.6 nM
Structure (SMILES): Cc1ccc(-c2cnc3nnc(SCc4ccncc4)n3n2)cc1

IC50 [2]: 53 nM
IC50 [4]: 14200 nM
IC50 [5]: 11300 nM
IC50 [6]: 12200 nM
Structure (SMILES): Clc1ccc(Cl)c(-c2cn3cccc(COc4nnc5ccc(Cl)nn45)c3n2)c1
IC50 [3]: 253 nM

IC50 (CYP3A4 [7]): > 50000 nM
IC50 (CYP3A4 [8]): > 50000 nM
fold change (FC) (Cytochrome P450 3A4): > 1
Structure (SMILES): COc1ccc2c(NCc3nnc4ccc(-c5ccccc5)nn34)ccnc2c1

IC50 (SNU1): > 50000 nM
IC50 (NCI-H661): > 50000 nM
Structure (SMILES): COc1ccc2c(OCc3nnc4ncc(-c5ccccc5)nn34)ccnc2c1
IC50 [9]: 23.7 nM
IC50 (NIH3T3 [10]): 79.5 nM
IC50 (NIH3T3 [11]): > 50000 nM

IC50 (MKN-45): 1980 nM
Structure (SMILES): Cc1[nH]c2ncc(-c3cnn(C4CCNCC4)c3)cc2c1C(C)c1c(Cl)ccc(F)c1Cl (centres undefined)
IC50 (EBC-1): 2380 nM

IC50 (MKN-45): 6520 nM
Structure (SMILES): CC(c1c(Cl)ccc(F)c1Cl)c1c(Cl)[nH]c2ncc(-c3cnn(C4CCNCC4)c3)cc12 (centres undefined)
IC50 (EBC-1): 9220 nM

IC50 (HepG2): 710 nM
IC50 [1]: 6.4 nM
Structure (SMILES): Brc1ccc(-c2cnc3nnc(SCc4cccnc4)n3n2)cc1

IC50 [12]: 4.4 nM
Structure (SMILES): COc1ccc2c(OCc3nnc4ccc(-c5ccccc5)nn34)ccnc2c1 [AMG-208]

fold change (FC) (Cytochrome P450 3A4): 0.64
Structure (SMILES): COc1ccc2c(SCc3nnc4ccc(-c5ccccc5)nn34)ccnc2c1

IC50 (HepG2): 1020 nM
IC50 [1]: 5.6 nM
Structure (SMILES): Cc1ccc(-c2cnc3nnc(SCc4cccnc4)n3n2)cc1

solubility at 2 h [13]: 3.6 µg/mL (≈ 10.7 µM)
Structure (SMILES): Oc1ccc(-c2cnc3nnc(SCc4ccncc4)n3n2)cc1

IC50 [2]: 62 nM
IC50 [4]: 15600 nM
IC50 [5]: 13500 nM
IC50 [6]: 12300 nM
Structure (SMILES): Clc1ccc(-c2cn3cccc(COc4nnc5ccc(Cl)nn45)c3n2)c(Cl)c1
IC50 [3]: 271 nM

IC50 (HepG2): 3060 nM
IC50 [1]: 52 nM
solubility at 2 h [13]: 203 µg/mL (≈ 636 µM)
Structure (SMILES): Oc1ccc(-c2cnc3nnc(NCc4ccncc4)n3n2)cc1
